Reference: patent EP2730577A1, “CRYSTAL MODIFICATION OF A PARA-METHOXYANILIDE OF 6-HYDROXY-4-OXO-2,4,DIHYDRO-1H-PYRROLO[3,2,1-IJ]-QUINOLINE-5-CARBOXYLIC ACID” (Otkrytoe Aktsionernoe Obschestvo Mezhdunarodnaya, priority 2012, dated 2013)

What was measured:
white rats [1] = assay: Diuretic effect (urinary excretion) in rats after oral administration; type: in vivo; settings: for Diuresis after 5 hr.: 10 mg/kg orally as a fine suspension in water stabilized with Tween-80, after water load, urine excreted over 5 hrs, control 4.3 ± 0.20 ml, 10 mg/kg; for Diuretic effect: 5 hr, relative to control = 100, 10 mg/kg
Protocol: Example 6. Diuretic effect of the novel crystal modification (β-form) of 6-hydroxy-4-oxo-2,4-dihydro-1H-pyrrolo[3,2,1-ij]-quinoline-5-carboxylic acid para-metoxyanilide compared to the effect of the known crystal modification (α-form) of the same compound was studied on white rats weighing 180 - 200 g
(12 animals per each compound) using a standard technique. All tested animals received water via a gastric tube at 5 ml per […] of body weight. The control group received the same amount of water with Tween 80. The tested substances were administered orally at 10 mg/kg (median effective dose of the known α-form) as a fine suspension in water stabilized with Tween-80. After that, the tested animals were placed into "exchange cages". The urinary excretion intensity was determined by the amount of urine excreted by the animals over a period of 5 hrs. The experimental data shown in Table 9 leads to a conclusion that the diuretic action of the novel crystal modification (β-form) of 6-hydroxy-4-oxo-2,4-dihydro-1H-pyrrolo[3,2,1-ij]-quinoline-5-carboxylic acid para-metoxyanilide exceeds that of the known α-form by an average of 19%.

white rats [2] = settings: diuretic effect, oral; stated for the known α-form without data of its own; cited from earlier work

SMILES | Diuresis after 5 hr. (white rats [1]) | Diuretic effect (white rats [1]; 10 mg/kg orally) | median effective dose (white rats [2]) | diuretic action exceeds that of the known α-form (white rats [1]; 10 mg/kg orally, 5 hrs, β-form versus α-form, average)
COc1ccc(NC(=O)c2c(O)c3cccc4c3n(c2=O)CC4)cc1 [Known α-form, 6-hydroxy-4-oxo-2,4-dihydro-1H-pyrrolo[3,2,1-ij]-quinoline-5-carboxylic acid para-metoxyanilide] | 9.7 ± 0.28 mL | 226% | 10 mg/kg | –
COc1ccc(NC(=O)c2c(O)c3cccc4c3n(c2=O)CC4)cc1 [Novel β-form, 6-hydroxy-4-oxo-2,4-dihydro-1H-pyrrolo[3,2,1-ij]-quinoline-5-carboxylic acid para-metoxyanilide] | 10.5 ± 0.27 mL | 245% | – | 19%
